Several values for one entry are separate records, joined by “and”; a condition that tells them apart may be missing. Equal values may be shown once.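 Protocol summary: plate cells (96-well), add compound at 5 concentrations, incubate 48 h, interpolate endpoints linearly. GI50 is the concentration that inhibits growth by half. TGI: concentration producing complete growth inhibition.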

Test systems include UACC-62 melanoma; HCT-15 colon; U251 CNS; SR leukemia; SF-295 CNS; M14 melanoma; PC-3 prostate; HOP-62 NSCLC; SK-MEL-28 melanoma; EKVX NSCLC.
What all share (experiment): inhibition of tumour cell growth, NCI panel, 48 h

As to `CCN(CC)c1ccc(C(=O)c2ccc(N(CC)CC)cc2)cc1`, the GI50 is 429 nM with UACC-62 melanoma; 412 nM in the assay with HCT-15 colon; 504 nM in the assay on U251 CNS; 127 nM with SR leukemia; 289 nM with SF-295 CNS; 614 nM with M14 melanoma. In addition, the GI50 was 452 nM with PC-3 prostate, 805 nM with HOP-62 NSCLC, 23100 nM in the assay on SK-MEL-28 melanoma and 1190 nM in the assay on EKVX NSCLC. The TGI with UACC-62 melanoma was greater than 100 µM; in the assay with HCT-15 colon, 36.1 µM; in the assay on U251 CNS it was 23.2 µM; with SR leukemia, greater than 100 µM; in the assay with SF-295 CNS it was 4.17 µM; with M14 melanoma it was greater than 30.1 µM. Moreover, the TGI in the assay on PC-3 prostate was greater than 100 µM; in the assay on HOP-62 NSCLC, 98.2 µM; in the assay on SK-MEL-28 melanoma, greater than 100 µM; in the assay with EKVX NSCLC, greater than 70.3 µM.

Turning to `COC(=O)[C@@H](C)C[C@H](Cc1ccccc1)NC(=O)c1csc([C@@H](C[C@H](C(C)C)N(C)C(=O)[C@@H](NC(=O)[C@H]2CCCCN2C)C2CC2)OC(C)=O)n1`, the TGI in the assay on UACC-62 melanoma was greater than 16.5 µM; in the assay with HCT-15 colon, greater than 16.5 µM; in the assay with U251 CNS, greater than 16.5 µM; in the assay with SR leukemia, greater than 16.5 µM; in the assay with SF-295 CNS it was 0.00369 µM; in the assay with M14 melanoma, less than 0.00165 µM. In addition, the TGI with PC-3 prostate, in the assay on HOP-62 NSCLC and with EKVX NSCLC was greater than 16.5 µM throughout. Moreover, the GI50 was 1.31 nM and 1.65 nM in the assay on HCT-15 colon; 0.457 nM and 1.65 nM with U251 CNS; 0.345 nM in the assay with SF-295 CNS; 0.455 nM and < 1.65 nM in the assay on M14 melanoma; 0.211 nM and 1.65 nM in the assay with PC-3 prostate; 0.745 nM and 1.65 nM with HOP-62 NSCLC. In addition, the GI50 in the assay with SK-MEL-28 melanoma was 0.934 nM; in the assay on EKVX NSCLC it was 4.6 nM and 1.65 nM.

For `O=C(O)C1CC(O)CN1` (configuration not stated), the TGI in the assay with UACC-62 melanoma, with HCT-15 colon, in the assay with U251 CNS, with SR leukemia, with SF-295 CNS and in the assay on M14 melanoma was greater than 100 µM each time. Further, the TGI in the assay with PC-3 prostate, in the assay on HOP-62 NSCLC, in the assay with SK-MEL-28 melanoma and in the assay with EKVX NSCLC was greater than 100 µM throughout.

In the case of `Cc1cnc(C(=O)NNc2nc3sc4c(c3c(=O)n2C)C(C)CCC4)cn1` (configuration not stated), the GI50 in the assay with UACC-62 melanoma is 346 nM; in the assay with HCT-15 colon it was 268 nM; with U251 CNS, 228 nM; in the assay on SR leukemia it was 237 nM; with SF-295 CNS, 384 nM; in the assay on M14 melanoma it was 284 nM. For the same molecule, the GI50 with PC-3 prostate was 465 nM; in the assay with HOP-62 NSCLC, 304 nM; in the assay on SK-MEL-28 melanoma, 537 nM; in the assay with EKVX NSCLC, 292 nM. In addition, the TGI is 2.24 µM with UACC-62 melanoma; 11.8 µM with HCT-15 colon; 2.32 µM with U251 CNS; greater than 100 µM in the assay on SR leukemia; 3.91 µM with SF-295 CNS; 2.43 µM with M14 melanoma. The TGI stood at 11.2 µM in the assay with PC-3 prostate, 5.65 µM in the assay with HOP-62 NSCLC, 4.6 µM with SK-MEL-28 melanoma and 9.13 µM with EKVX NSCLC.

Turning to `O=C1C(Cl)=C(NCc2ccco2)C(=O)c2ccccc21`, the GI50 in the assay with UACC-62 melanoma is 3980 nM; in the assay with HCT-15 colon it was 4770 nM; with U251 CNS, 17000 nM; in the assay with SR leukemia it was 20600 nM; in the assay on SF-295 CNS, 8240 nM; with M14 melanoma, 4310 nM. Besides, the GI50 with PC-3 prostate is 33600 nM; in the assay with HOP-62 NSCLC, 17100 nM; in the assay on SK-MEL-28 melanoma, 6890 nM; in the assay with EKVX NSCLC, 37300 nM. In addition, the TGI was 13.6 µM with UACC-62 melanoma; 56.5 µM with HCT-15 colon; greater than 93.7 µM in the assay with U251 CNS; greater than 100 µM in the assay on SR leukemia; 41.6 µM with SF-295 CNS; 12.1 µM in the assay with M14 melanoma. In addition, the TGI with PC-3 prostate is greater than 100 µM; in the assay with HOP-62 NSCLC it was 43.6 µM; in the assay on SK-MEL-28 melanoma it was 17.8 µM; in the assay on EKVX NSCLC, greater than 100 µM.

Consider `CCOC(=O)c1c2c(n3ccccc13)C(=O)c1ncccc1C2=O`, for which the GI50 was 33.7 nM in the assay with UACC-62 melanoma; 24 nM in the assay on HCT-15 colon; 32.9 nM in the assay with U251 CNS; 15.9 nM with SR leukemia; 1310 nM in the assay with SF-295 CNS; 35.4 nM with M14 melanoma. Besides, the GI50 was 361 nM with PC-3 prostate, 77.7 nM with HOP-62 NSCLC, 134 nM with SK-MEL-28 melanoma and 1130 nM in the assay on EKVX NSCLC. Besides, the TGI in the assay with UACC-62 melanoma is 1.39 µM; with HCT-15 colon it was 12.8 µM; in the assay on U251 CNS, 1.96 µM; with SR leukemia it was greater than 100 µM; with SF-295 CNS, 11.3 µM; with M14 melanoma it was 2.94 µM. Moreover, the TGI in the assay on PC-3 prostate was found to be 14.9 µM; in the assay on HOP-62 NSCLC, 8.86 µM; with SK-MEL-28 melanoma it was 33.3 µM; in the assay on EKVX NSCLC it was 19.3 µM.

For the molecule `Cc1cccc(NC(=O)c2cccc([N+](=O)[O-])c2O)c1C`, the TGI is greater than 100 µM in the assay on UACC-62 melanoma; greater than 100 µM in the assay with HCT-15 colon; greater than 100 µM in the assay with U251 CNS; greater than 100 µM in the assay with SR leukemia; 80.1 µM in the assay with SF-295 CNS; greater than 100 µM in the assay on M14 melanoma. The TGI is greater than 100 µM in the assay on PC-3 prostate, 52.4 µM in the assay on HOP-62 NSCLC, greater than 100 µM with SK-MEL-28 melanoma and greater than 100 µM in the assay with EKVX NSCLC.

Source of the values: PubChem BioAssay (NCI).
